{"source": "patent US20240041838A1", "about": "“METHODS AND COMPOSITIONS FOR INHIBITION OF NEUTROPHIL RECRUITMENT IN MYCOCARDIAL ISCHEMIA-REPERFUSION INJURY” (University of Connecticut, priority 2022, published 2024)", "key": {"[1]": {"tested_on": "human neutrophils", "assay": "microfluidic perfusion assay: neutrophil rolling and arrest on P-selectin/ICAM-1 with IL-8", "format": "cell-based", "details": "10 μM", "experimental": "The assembly of the microfluidic devices used in this study and the coating of coverslips with recombinant human P-selectin-Fc and ICAM-1-Fc with or without IL-8 have been described previously. Briefly, coverslips were coated with P-selectin-Fc (2 μg·ml^−1) and ICAM-1-Fc (10 μg·ml^−1) without or with IL-8 (10 μg·ml^−1) for two hours and then blocked for one hour with casein (1%) at RT. After coating, coverslips were sealed with polydimethylsiloxane chips by magnetic clamps to create flow chamber channels ˜29 μm high and ˜300 μm across. By modulating the pressure between the inlet well and the outlet reservoir, 6 dyn·cm^−2 wall shear stress was applied in all experiments.\nTo study the rolling and arrest of neutrophils, isolated human neutrophils (5×10^6 cells·ml^−1) were perfused in the microfluidic device over a substrate of recombinant human P-selectin-Fc and recombinant human ICAM-1-Fc with or without IL-8 under a shear stress of 6 dyn·cm^−2. […] Time-lapse images (one frame per second) were taken by an IX71 inverted research microscope (Olympus America) with a 40× NA 0.9 air objective during the perfusion to quantify rolling velocity. The quantification was done using the “Manual tracking” plugin in FIJI-ImageJ v2.0. Cell tracks (FIG. 1A) and rolling velocity were obtained (FIGS. 1B, 2C). After perfusion with neutrophils for 10 minutes, the microfluidic device was washed with RPMI-1640 without phenol red plus 2% HSA for 5 minutes. Then, the arrested neutrophils were counted in nine fields-of-view per group (FIG. 1D)."}, "[2]": {"tested_on": "human neutrophils", "assay": "neutrophil viability by flow cytometry (Ghost Dye Blue 516)", "format": "cell-based", "details": "100 μM Nexinhib20, one hour at room temperature", "experimental": "After washes, neutrophils were incubated with Ghost Dye Blue 516 at RT for 15 minutes. After washes, cell fluorescence was assessed with an LSRII (BD Biosciences, San Jose, CA) and analyzed with FlowJo software (version 10.6)."}, "[3]": {"tested_on": "mouse myocardial I/R injury", "assay": "infarct size (TTC-phthalo-blue staining) and left ventricle echocardiogram in mouse myocardial I/R injury", "format": "in vivo", "experimental": "Mice were subjected to 35 minutes of myocardial ischemia and 1 (for multi-photon microscopy and flow cytometry) or 22-26 (for TTC-phthalo-blue staining) hours of reperfusion. […] Briefly, anesthesia was induced with an intraperitoneal injection of ketamine hydrochloride (125 mg·kg^−1) and xylazine (12.5 mg·kg^−1). Mice were intubated with 24G×3/4″ Surflo i.v. catheter and ventilated using MiniVent 845 (Harvard Apparatus).\nSurgeries were performed under an SMZ168 Stereo Zoom microscope (Motic). Ischemia was achieved by ligating the left anterior descending coronary artery (LAD) using a 6-0 silk suture with a section of PE-10 tubing placed over the LAD, 1 mm from the tip of the normally positioned left atrium. One important problem in drug administration is water solubility, which greatly affects drug absorption and bioavailability. […] In clinics, the primary percutaneous coronary intervention aims to be performed less than 90 min (within 60 min is preferable) after the patient arrives. […] After occlusion for 35 minutes, reperfusion was initiated by releasing the ligature and removing the PE-10 tubing. The chest wall was closed, the animal extubated, and body temperature was maintained by use of a 37° C. warm pad. Hearts were harvested 1 or 22-26 hours later. The loosened suture was left in place and then retied for the purpose of evaluating the ischemic area. […]\nTo assess the ischemic area at risk after 22-26 hours of reperfusion, hearts were excised, infused with PBS and freshly prepared 10% phthalo-blue (PBS with 0.75% tween 20) through the aorta and coronary arteries in a retrograde fashion, frozen at −20° C. for 10 minutes, and sliced into five to six 1 mm cross-sections with the aid of a pre-freeze acrylic matrix (ZIVIC Labs). […] The infarct area (white), the area at risk (red and white), and the total left ventricle area from each section were measured using ZEN v3.1 (Zeiss). Ratios of infarct area/area at risk (FIG. 5B) and of area at risk/left ventricle (FIG. 5C) were calculated and expressed as percentages.\nTo quantify left ventricle function, we performed echocardiograms on mice before and seven days after myocardial I/R injury. […] Echocardiography loops were recorded in B and two-dimensional-targeted M modes in longitudinal and short-axis views on a Vevo 3100 High-Resolution Imaging System equipped with an MX550D transducer (VisualSonics, Toronto, ON, Canada). Mice were fixed on a heated table and heart rate was monitored during the procedure. […] Left ventricular ejection fraction was determined by left ventricle tracing relating the end-systolic left ventricle area as the minimal left ventricle cross-sectional area to the end-diastolic left ventricle area as the maximum left ventricle cross-sectional area in long-axis views. […]"}, "[4]": {"assay": "pharmacokinetics after i.p. injection in mice", "format": "in vivo, mouse", "details": "plasma", "experimental": "Pharmacokinetics was performed through a service provided by the Shanghai Institute of Materia Medica. […] Blood samples (20 μL) were collected at 3 min, 15 min, 45 min, 2 h, 4 h, 8 h, and 24 h through femoral vein phlebotomy. 200 μL of methanol:acetonitrile (1:1, v/v) with internal standard was added to […] of plasma and vortexed thoroughly. After centrifuging at 11000 rpm, RT for 5 min, 20 μL of the supernatant was collected and mixed with 20 μL of water for analysis. Samples were analyzed by a TQ-S triple quadrupole mass spectrometer (Waters, Milford, MA, USA). An Acquity Uplc Beh C18 Column (1.7 μm, 2.0 mm×50 mm, Waters) was used for the analysis. Gradient elution was applied consisting of 5 mM […] containing 0.1% formic acid and methanol:acetonitrile (1/9, v/v) containing 0.1% formic acid."}, "[5]": {"tested_on": "human neutrophils", "details": "1 and 4 hours of incubation; previous study; cited from earlier work"}, "[6]": {"tested_on": "human neutrophils", "details": "30 mins GM-CSF and fMLP; pretreatment; cited from earlier work"}}, "note": "Where “and” joins values, the source holds several entries; their conditions need not be identical. Equal entries are not always repeated."}
{"compound": "CC(C)(C)C(=O)/C(=C\\c1cccc([N+](=O)[O-])c1)n1cncn1", "note": "[Nexinhib20, 4,4-dimethyl-1-(3-nitrophenyl)-2-(1H-1,2,4-triazol-1-yl)-1-penten-3-one]", "values": [{"measurement": "effect of IL-8 on rolling velocity of treated neutrophils", "setting": "[1]; RT 1 hour", "value": "did not slow down"}, {"measurement": "neutrophil arrest on IL-8 substrate", "setting": "[1]; RT 1 hour before perfusion", "value": "failed to arrest"}, {"measurement": "decrease of number of arrested neutrophils", "setting": "[1]; RT 1 hour, P-selectin/ICAM-1/IL-8, 6 dyn·cm^−2", "value": "about 90%"}, {"measurement": "number of arrested neutrophils", "setting": "[1]; RT 1 hour, P-selectin/ICAM-1/IL-8, 6 dyn·cm^−2, vehicle about 200", "value": "about 20 cells per field-of-view"}, {"measurement": "neutrophil viability", "setting": "[2]", "value": "~100", "unit": "%"}, {"measurement": "infarct area percentage (infarct area/area at risk)", "setting": "[3]; I/R 35 min/24 hours, i.p. 30 minutes before reperfusion, vehicle about 50%", "value": "about 40%"}, {"measurement": "change of ejection fraction after myocardial I/R injury", "setting": "[3]; echocardiogram before and 7 days after I/R, vehicle reduced by about 25%", "value": "no significant reduction"}, {"measurement": "change of fractional shortening after myocardial I/R injury", "setting": "[3]; echocardiogram before and 7 days after I/R, vehicle reduced by about 30%", "value": "no significant reduction"}, {"measurement": "reduction of infarct size", "setting": "[3]; mouse myocardial I/R injury", "value": "about 20%"}, {"measurement": "concentration at 4 h", "setting": "[4]; male, mouse, ip, 0.8 μmol per mouse, 4 h", "value": "< 28800 ng/mL and < 96 nM"}, {"measurement": "half-life", "setting": "[4]; male, mouse, ip, 0.8 μmol per mouse, one phase exponential decay fit, 95% CI", "value": "11.5 to 16.3", "unit": "min"}, {"measurement": "time within which Nexinhib20 was degraded", "setting": "[4]", "value": "≤ 2", "unit": "h"}, {"measurement": "cell death compared to DMSO vehicle controls", "setting": "[5]", "value": "did not induce a significant increase in cell death"}, {"measurement": "CD11b upregulation", "setting": "[6]", "value": "diminished"}]}
